Reference: patent US20050245529A1 (Boehringer Ingelheim International GmbH, priority 2004, published 2005)

Molecular target: T1, hMCH-1R (Homo sapiens, UniProt Q99705)
T1 construct: expressed in transfected cells; host or cells: CHO/Galpha 16 cells, stably transfected; membranes used
Assay: MCH-1 receptor binding test
Settings: 125I-MCH binding, membranes from CHO/Galpha 16 cells stably transfected with human hMCH-1R
Protocol: Membranes from CHO/Galpha 16 cells stably transfected with human hMCH-1R are resuspended using a syringe (needle 0.6×25 mm) and diluted in test buffer (50 mM HEPES, 10 mM MgCl2, 2 mM EGTA, pH 7.00; 0.1% bovine serum albumin (protease-free), 0.021% bacitracin, 1 μg/mL aprotinin, 1 μg/mL leupeptin and 1 μM phosphoramidone) to a concentration of 5 to 15 μg/mL. […] After the incubation the reaction is filtered using a cell harvester through 0.5% PEI treated fiberglass filters (GF/B, Unifilter Packard). The membrane-bound radioactivity retained on the filter is then determined after the addition of scintillator substance (Packard Microscint 20) in a measuring device (TopCount of Packard). […] The analysis of the concentration binding curve is carried out on the assumption of one receptor binding site.

T1 sequence (Q99705 whole entry): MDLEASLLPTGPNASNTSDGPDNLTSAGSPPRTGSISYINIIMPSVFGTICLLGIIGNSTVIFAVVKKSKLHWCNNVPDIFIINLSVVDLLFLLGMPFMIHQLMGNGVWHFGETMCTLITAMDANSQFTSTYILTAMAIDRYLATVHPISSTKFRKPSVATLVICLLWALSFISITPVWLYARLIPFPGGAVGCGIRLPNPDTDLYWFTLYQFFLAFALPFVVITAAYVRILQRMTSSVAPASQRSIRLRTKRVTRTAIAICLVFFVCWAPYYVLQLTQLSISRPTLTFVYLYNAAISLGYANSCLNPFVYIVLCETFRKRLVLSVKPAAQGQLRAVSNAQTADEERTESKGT

| IC50 | SMILES |
| --- | --- |
| 0.0037 µM | NC(=O)C1CCN([C@H]2CCN(c3ccc(C#Cc4ccc(-c5ccc(Cl)cc5)cn4)cn3)C2)CC1 [Example 6.3, (S)-1-(1-{5-[5-(4-chlorophenyl)pyridin-2-ylethynyl]pyridin-2-yl}pyrrolidin-3-yl)piperidin-4-carboxylic acid amide] |
| 0.025 µM | CCCN(CC1CC1)[C@H](C)/C=C(\C)c1ccc(C#Cc2ccc(-c3ccc(Cl)cc3)cn2)cc1 [Example 15.5, ((E)-(R)-3-{4-[5-(4-chlorophenyl)pyridin-2-ylethynyl]phenyl}-1-methylbut-2-enyl)cyclopropylmethylpropylamine] |
